Assay results taken from patent US12195760B2, “Method for enhancing proliferation capability of stem cells using ethionamide” (SAMSUNG LIFE PUBLIC WELFARE FOUNDATION, priority 2016, dated 2025).

Legend:
[1] = tested on: human umbilical cord mesenchymal stem cells
Procedure: After 72 hours, cell proliferation analysis was performed. For this purpose, a BrdU cell proliferation assay kit (Cell Signaling Technology, USA) using 5-bromo-2′-deoxyuridine (BrdU) bound during DNA synthesis in cells was used. Specifically, BrdU was added to cells, and reacted for 24 hours. Thereafter, the cells were immobilized, and DNA was denatured. Then, the cells were treated with an anti-BrdU antibody, and then reacted with a tetramethylbenzidine (TMB) substrate using a secondary antibody conjugated with horse-radish peroxidase (HRP), and an absorbance value was measured at 450 nm using an ELISA reader.

[2] = tested on: human umbilical cord mesenchymal stem cells; conditions: ethionamide-primed MSCs compared to control not treated
Procedure: More specifically, the human umbilical cord mesenchymal stem cells (2×10^5 cells) were equally divided into 1.5 ml microtubes, treated with 100 μL of phosphate-buffered saline (PBS) containing 2% FBS, treated with an antibody bound to fluorescein isothiocyanate (FITC), phycoerythrin (PE), or allophycocyanin (APC), and then reacted at room temperature for 20 minutes. […] After the reaction, an antibody reaction was neutralized with PBS containing 2% FBS, and it was then determined whether the positive and negative markers were expressed using a flow cytometer.

[3] = tested on: human umbilical cord mesenchymal stem cells; conditions: ethionamide-primed MSCs compared to control not treated; Oil red O, Alizarin Red S, Safranin-O; FIGS. 3A to 3C
Procedure: Specifically, to induce differentiation into adipocytes or osteocytes, human umbilical cord mesenchymal stem cells (1×10^5 cells) cultured in a medium treated with ethionamide were seeded in a 6-well plate, and the differentiation was induced for approximately 3 weeks using adipogenesis/osteogenesis differentiation kits (Gibco, USA) while replacing the medium with a fresh medium twice a week. Thereafter, the cells differentiated into adipocytes and osteocytes were stained with Oil red O and Alizarin Red S to check whether the cells were differentiated into adipocytes and osteocytes. Quantification of the adipocytes was carried out by completely removing the medium from differentiation culture containers, drying the culture containers, putting 100% isopropanol into the culture containers, culturing the cells at room temperature for 10 minutes, thoroughly mixing the differentiated cells with 100% isopropanol, and measuring an absorbance at 500 nm to quantify the degree of differentiation. Quantification of the osteocytes was carried out by quantifying the degree of differentiation using an Alizarin Red S staining quantification assay kit (ScienCell, USA). […]

CCc1cc(C(N)=S)ccn1 [ethionamide, 2-ethylpyridine-4-carbothioamide]
proliferation rate according to treatment time ([1]; 10 uM or 100 uM ethionamide, treated for 72 hours, FIG. 1B): most significantly enhanced | proliferation rate of the cells according to treatment concentration ([1]; ethionamide at a concentration of 50 uM or more (tested 1 to 500 μM), 72 hours, BrdU absorbance 450 nm, FIG. 1A): significantly enhanced | expression of positive markers CD44, CD73, CD90, CD105, CD166 ([2]; FIG. 2A): expressed at a similar level | expression of negative markers CD11b, CD14, CD19, CD34, CD45, HLA-DR ([2]; FIG. 2B): not expressed at a level similar to the control | differentiation into adipocytes, osteocytes, and chondrocytes [3]: well differentiated
